Laboratory results: paper PMC9139002, “Naphthoquinone as a New Chemical Scaffold for Leishmanicidal Inhibitors of Leishmania GSK-3” (Biomedicines, 2022)
Like-named read-outs stand apart in the source and are kept apart here.

Legend:
[1] = tested on: L. donovani promastigotes; assay: Leishmanicidal activity on promastigotes (MTT reduction), Table 1; assay type: cell-based; conditions: Leishmania donovani
LdGSK-3s [2] = target: T1, LdGSK-3s (Leishmania donovani, UniProt A6N857); assay: Inhibition of recombinant LdGSK-3s with Kinase Glo; assay type: biochemical; conditions: for IC50: recombinant LdGSK-3s, Kinase Glo
Procedure: (§1) Extraction, purification, and evaluation of compounds against recombinant LdGSK-3s was carried out as described. For that, a recombinant LdGSK-3s with a His-tag was obtained as inclusion bodies, that were further solubilized, and purified by chromatography first on a Ni^2+ column an in a second step on a DEAE (diethylaminoethyl) ionic exchange column. Samples were made in duplicate, and assays were repeated at least three times. IC50 (inhibitory concentration that decreases enzymatic activity by 50%) was calculated using the statistical module of SigmaPlot v11.0 software. Evaluation of compounds against hGSK-3β was performed using human recombinant GSK-3β purchased from Millipore as described previously. Compounds were prepared as a 10 mM stock solution in DMSO.

[3] = tested on: L. infantum promastigotes; assay: Leishmanicidal activity on promastigotes (MTT reduction), Table 2 and Table S1; assay type: cell-based, Leishmania infantum
Procedure: (§2) Both activities were assessed by inhibition of MTT (3-(4,5-dimethylthiazol-2-yl)-2,5-diphenyltetrazolium bromide) reduction, as described in [34]. Samples were made in triplicate and assays were repeated at least twice. DMSO content in the medium was adjusted to 0.25% v/v (final concentration), regardless of the final concentration of the drug, and for the control, the untreated parasites. ICx (inhibitory concentration that inhibits parasite growth or enzymatic activity by x%) was calculated using the statistical module of SigmaPlot v11.0 software.
In a step ahead, the leishmanicidal activity of the compounds on L. pifanoi axenic amastigotes and L. infantum promastigotes was evaluated. Axenic Leishmania amastigotes afford the appraisal of the leishmanicidal activity without the constrains imposed on the access of the compounds to intracellular amastigotes within the parasitophorous vacuole, as well as to preclude the interference of the compounds via host–parasite interface in the final activity. For that, the axenic line of L. pifanoi amastigotes belonging to the mexicana complex was chosen, as in this species the infectivity, antigenicity, and metabolic identity between axenic and intracellular amastigotes have been consistently validated.

hGSK-3β = target: T2, hGSK-3β (Homo sapiens, UniProt P49841); assay: Inhibition of human recombinant GSK-3β; assay type: biochemical; conditions: read-out: percentage of inhibition of hGSK-3β
T2 construct: purchased Millipore
Procedure: as §1

[4] = tested on: L. donovani promastigotes; assay: Sub G0/G1 population (propidium iodide flow cytometry); assay type: cell-based, Leishmania donovani; conditions: 72 h
Procedure: L. donovani promastigotes (2 × 10^6 cells/mL) in RPMI-HIFCS were incubated with each compound in 24-well plates for 72 h at 26 °C by duplicate. Next, compounds were removed by washing with HBSS-Glc (15,700× g, 4 min, 4 °C) and cells were resuspended in […] of HBSS-Glc, fixed and permeabilized by addition of 200 μL 70% cold EtOH and incubated overnight at 4 °C. Ethanol was removed by centrifugation and cellular pellets washed with HBSS-Glc. Finally, cells were resuspended in 500 μL HBSS-Glc with 20 μg/mL propidium iodide (PI) and 3 mg/mL Ribonuclease A, and incubated in darkness at r. t. for 30 min. PI fluorescence was measured in a Coulter XL EPICS flow cytometer (Beckman Coulter, Nyon, Switzerland) (λEXC = 488 nm, λEM = 620 nm).
Each assay was repeated at least twice. Untreated cells were used as control for a standard cell cycle histogram, and Miltefosine (hexadecylphosphocholine) (15 μM) was used as control for an apoptosis-inducing respiratory inhibitor [51].
Parasites were incubated with the corresponding drug for 72 h, followed by EtOH permeabilization, incubated with 3 mg/mL Ribonuclease A and stained with 20 μg/mL of propidium iodide (PI) before cytofluorometric analysis. (λEXC = 488 nm, λEM = 620 nm). The percentage of subG0/G1 population (enclosed within green bars) stands for degraded chromatin, associated with the apoptotic-like process. Miltefosine (hexadecylphosphocholine, HePc) at 15 μM was added as a control for induction of apoptosis.

[5] = tested on: L. pifanoi axenic amastigotes; assay: Leishmanicidal activity on axenic amastigotes (MTT reduction); assay type: cell-based, Leishmania pifanoi
[6] = tested on: L. donovani promastigotes; assay: Mitochondrial membrane depolarization (Rhodamine 123 accumulation); assay type: cell-based, Leishmania donovani; conditions: 4 h; for decrease of Rh123 fluorescence: 2 μM (IC80)
[7] = tested on: mouse peritoneal macrophages (MPM); assay: Cytotoxicity on mouse peritoneal macrophages (MTT reduction); assay type: cell-based; conditions: for Selectivity Index (SI): IC50 MPM/IC50 axenic amastigotes; for IC50: mouse peritoneal macrophages, MTT reduction
Procedure: Leishmania parasites were collected at late exponential growth phase by centrifugation at 1610× g at 4 °C. Elicited mouse peritoneal macrophages (MPM) were obtained from 8-week-old Balb/c mice through i.p. injection with 1 mL of 10% thioglycolate medium 72 h before extraction. Macrophages were obtained by peritoneal washing (10 mL PBS, 4 °C).
as §2

[8] = tested on: intracellular L. pifanoi amastigotes; assay: Parasite load of macrophages infected with mCherry-L. pifanoi amastigotes; assay type: cell-based, Leishmania pifanoi
LdGSK-3s [9] = target: T1, LdGSK-3s; assay: Mechanism of inhibition of LdGSK-3s (kinetics versus ATP, Eadie–Scatchard plot); assay type: biochemical; conditions: ATP 1 to 10 μM, inhibitor 2.5 and 5 μM, GS2 25 μM
Procedure: Briefly, kinetic experiments were carried out at four different concentrations of ATP (10, 5, 2.5, and 1 µM), in the absence or presence of the inhibitors, at either 2.5 or 5 µM, while the phospho-glycogen synthase peptide-2 (GS2) substrate was kept constant at 25 µM. The data were processed using Microsoft Excel software and results presented as Eadie–Scatchard plots (v vs. v/[ATP]).

T2 sequence (P49841 whole entry): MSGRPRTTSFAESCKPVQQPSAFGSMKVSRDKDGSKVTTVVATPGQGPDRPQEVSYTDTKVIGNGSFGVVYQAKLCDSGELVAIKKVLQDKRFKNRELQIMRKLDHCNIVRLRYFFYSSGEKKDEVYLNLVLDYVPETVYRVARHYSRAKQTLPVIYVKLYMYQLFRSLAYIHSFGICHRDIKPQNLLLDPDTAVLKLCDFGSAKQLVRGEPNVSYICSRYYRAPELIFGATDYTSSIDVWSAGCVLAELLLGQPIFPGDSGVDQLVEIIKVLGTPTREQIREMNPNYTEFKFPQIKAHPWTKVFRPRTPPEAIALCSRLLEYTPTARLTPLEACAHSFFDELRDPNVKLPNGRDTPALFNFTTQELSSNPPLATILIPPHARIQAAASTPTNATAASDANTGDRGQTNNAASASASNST
T1 sequence (A6N857 entry or part of it): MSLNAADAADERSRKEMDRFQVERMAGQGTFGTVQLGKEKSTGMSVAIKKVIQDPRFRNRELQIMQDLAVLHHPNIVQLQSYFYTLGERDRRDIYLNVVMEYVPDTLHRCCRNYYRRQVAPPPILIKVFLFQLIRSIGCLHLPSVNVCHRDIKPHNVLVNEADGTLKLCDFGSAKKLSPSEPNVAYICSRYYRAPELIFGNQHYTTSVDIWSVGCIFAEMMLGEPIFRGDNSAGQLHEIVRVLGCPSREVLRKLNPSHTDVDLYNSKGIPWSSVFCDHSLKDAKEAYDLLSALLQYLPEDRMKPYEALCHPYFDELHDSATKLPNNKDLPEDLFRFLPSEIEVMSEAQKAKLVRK

Row | Compound | IC50 (LdGSK-3s [2]) [µM] | IC50 ([3]; Leishmania infantum) [µM] | IC50 ([5]; Leishmania pifanoi) [µM] | Selectivity Index (SI) [7] | IC50 ([7]; Peritoneal macrophage) [µM] | melting point [°C] | also measured
1 | COC(=O)NC1=C(Cl)C(=O)c2ccccc2C1=O [MBC-132] | 2.5 ± 0.1 | 1.51 ± 0.02 | 0.51 ± 0.01 | 5.1 | 2.6 | – | IC50 [1]: 1.51 ± 0.02 µM; inhibition at 10 µM (hGSK-3β): 19%; percentage of subG0/G1 population ([4]; 3 μM (IC80)): 63.2 ± 0.3%; decrease in Rh123 accumulation ([6]; 3 μM (IC80)): ~70%; decrease in parasite load ([8]; 1 μM): 39.1%
2 | COc1cc(CNC2=C(Cl)C(=O)c3ccccc3C2=O)cc(OC)c1OC [Compound 10, 2-Chloro-3-((3,4,5-trimethoxybenzyl)amino)-1,4-naphthoquinone] | > 10 | > 50 | > 50 | – | – | 161 to 163 | –
3 | O=C1C(Cl)=C(NCc2ccccc2)C(=O)c2ccccc21 | > 10 | > 25 | > 25 | – | – | – | –
4 | CCCCCNC1=C(Cl)C(=O)c2ccccc2C1=O [Compound 7, 2-Chloro-3-(pentylamino)-1,4-naphthoquinone] | > 10 | 16.9 ± 0.4 | > 25 | – | – | – | –
5 | O=C1C(Cl)=C(NCc2ccc(Cl)cc2)C(=O)c2ccccc21 [Compound 11, 2-Chloro-3-((4-chlorobenzyl)amino)-1,4-naphthoquinone] | > 10 | > 25 | > 25 | – | – | – | –
6 | COC(=O)NC1=CC(=O)c2ccccc2C1=O [Compound 16, Methyl-(1,4-naphthoquinone-2-yl)carbamate] | > 10 | 4.1 ± 0.8 | 1.7 ± 0.2 | 2.2 | 3.8 ± 0.3 | 201 to 202 | –
7 | COc1cc(COC(=O)NC2=C(Cl)C(=O)c3ccccc3C2=O)cc(OC)c1OC [Compound 5, 3,4,5-Trimethoxybenzyl-(3-chloro-1,4-naphthoquinone-2-yl)carbamate] | 4.5 ± 0.6 | 3.8 ± 1.9 | 3.6 ± 0.6 | – | 8.1 ± 1 | – | –
8 | CCCCCCCCCCCCCCCCOP(=O)([O-])OCC[N+](C)(C)C [HePc, hexadecylphosphocholine, reference compound] | – | – | – | – | – | – | percentage of subG0/G1 population ([4]; 15 μM, control for induction of apoptosis): 36.8 ± 1.1%
9 | O=C1C=C(O)C(=O)c2c(O)c(Cl)c(Cl)c(O)c21 [MBC-10] | ~10 | 10.5 ± 1.2 | 11.2 ± 2.5 | – | – | – | IC50 [1]: 10.5 ± 1.2 µM; inhibition at 10 µM (LdGSK-3s [2]; at 10 μM): 45.7%
10 | N-(1,4-Naphthoquinone-2-yl) phenylacetamide [Compound 20] | > 10 | – | – | – | – | – | IC50 [3]: 7.1 ± 2.1 µM; IC50 [5]: 3.2 ± 0.1 µM; IC50 [7]: 7.5 ± 0.6 µM
11 | COc1ccc(COC(=O)NC2=C(Cl)C(=O)c3ccccc3C2=O)cc1 [Compound 4, 4-Methoxybenzyl-(3-chloro-1,4-naphthoquinone-2-yl)carbamate] | 4.1 ± 0.1 | 2.9 ± 0.2 | 3.7 ± 1.1 | 2.0 | 7.4 ± 0.8 | 137 to 147 | –
12 | CCOC(=O)NC1=CC(=O)c2ccccc2C1=O [Compound 17, Ethyl-(1,4-naphthoquinone-2-yl)carbamate] | > 10 | 4.5 ± 0.7 | 1.7 ± 0.1 | 2.5 | 4.2 ± 0.2 | 162 to 163 | –
13 | O=C1C(Cl)=C(Nc2ccc(Cl)cc2)C(=O)c2ccccc21 [Compound 12, 2-Chloro-3-((4-chlorophenyl)amino)-1,4-naphthoquinone] | > 10 | > 50 | > 50 | – | – | – | –
14 | O=C1Nc2ccc(S(=O)(=O)O)cc2C1=C1Nc2ccccc2C1=NO [Indirubin-3′-monoxime-5-sulphonic acid, reference compound] | 2.4 | – | – | – | – | – | –
15 | CC(C)(C)NC1=C(Cl)C(=O)c2ccccc2C1=O [Compound 8, 2-(tert-Butylamino)-3-chloro-1,4-naphthoquinone] | > 10 | 19.8 ± 3.6 | 17.8 ± 1.1 | 1.0 | 17 ± 0.3 | – | –
16 | CCCNC1=C(Cl)C(=O)c2ccccc2C1=O [Compound 6, 2-Chloro-3-(propylamino)-1,4-naphthoquinone] | > 10 | 19.1 ± 1.2 | > 25 | – | – | – | –
17 | O=C(NC1=C(Cl)C(=O)c2ccccc2C1=O)OCc1ccccc1 [Compound 3, Benzyl-(3-chloro-1,4-naphthoquinone-2-yl)carbamate] | 2.8 ± 0.1 | 4.9 ± 0.2 | 4.7 ± 0.8 | – | 9.8 ± 0.2 | – | inhibition at 10 µM (hGSK-3β): 19%
18 | N-(1,4-Naphthoquinone-2-yl)propionamide [Compound 19] | > 10 | – | – | – | – | – | IC50 [3]: 5.9 ± 1.8 µM; IC50 [5]: 1.8 ± 0.3 µM; IC50 [7]: 4.3 ± 0.3 µM
19 | O=C1C(Cl)=C(NC2CCCCC2)C(=O)c2ccccc21 [Compound 9, 2-Chloro-3-(cyclohexylamino)-1,4-naphthoquinone] | > 10 | > 25 | > 25 | – | – | 122 to 123 | –
20 | CCOC(=O)NC1=C(Cl)C(=O)c2ccccc2C1=O [Compound 1, Ethyl-(3-chloro-1,4-naphthoquinone-2-yl)carbamate] | 3.7 ± 0.3 | 1.54 ± 0.01 | 0.15 ± 0.4 | 20.6 | 3.1 ± 0.1 | 147 to 149 | inhibition at 10 µM (hGSK-3β): 30%; percentage of subG0/G1 population ([4]; 2 μM (IC80)): 54.0 ± 4.2%; decrease of Rh123 fluorescence [6]: 33.0%; mechanism of inhibition of LdGSK-3s (LdGSK-3s [9]): ATP competitive inhibitors
21 | N-(1,4-Naphthoquinone-2-yl)acetamide [Compound 18] | > 10 | – | – | – | – | – | IC50 [3]: 4.5 ± 0.5 µM; IC50 [5]: 1.2 ± 0.1 µM; IC50 [7]: 4 ± 0.2 µM
22 | CC(C)OC(=O)NC1=C(Cl)C(=O)c2ccccc2C1=O [Compound 2, Isopropyl-(3-chloro-1,4-naphthoquinone-2-yl)carbamate] | 2.5 ± 0.2 | 1.47 ± 0.02 | 0.4 ± 0.2 | – | 4.51 ± 0.3 | – | inhibition at 10 µM (hGSK-3β): 25%; percentage of subG0/G1 population ([4]; 2 μM (IC80)): 59.6 ± 1.1%; decrease of Rh123 fluorescence [6]: 26.4%; mechanism of inhibition of LdGSK-3s (LdGSK-3s [9]): ATP competitive inhibitors; decrease in parasite load ([8]; 2 μM): 76.3%
23 | CC(C)(C)NC(=O)NC1=C(Cl)C(=O)c2ccccc2C1=O [Compound 14, 1-(tert-Butyl)-3-(3-chloro-1,4-naphthoquinone-2-yl)urea] | > 10 | 1.4 ± 0.4 | 2.1 ± 0.6 | 0.6 | 1.3 ± 0.3 | 195 to 196 | –
